{"source": "paper PMC5554167", "about": "“Intestinal transepithelial permeability of oxytocin into the blood is dependent on the receptor for advanced glycation end products in mice” (Scientific Reports, 2017)", "key": {"[1]": {"details": "adult humans, cited from earlier work", "procedure": "An estimation of bioavailability was performed in adult mice. Fifty ng/mL of OT was detected after oral delivery of 10 μg of OT. Young adults weigh approximately 30 g and have 2.3 mL blood, so approximately 1% of oral OT can be absorbed. We have previously identified OT in the mammary tissues of mouse dams and in the milk curd inside the oesophagi of pups[13]. To determine the OT concentrations in milk, we needed to collect milk from the mothers. One common method is to collect milk after stimulating secretion with external OT. Because such milk contains external OT, we were unable to calculat ..."}, "[2]": {"assay": "LC-MS/MS of [Ile13C,15N]OT in plasma after oral administration to pups", "type": "in vivo, mice", "procedure": "Plasma samples were collected from the heart of anesthetized wild-type PND3 pups at 10 min after oral administration of [Ile ^13C, ^15N]OT (100 µM × 10 μL). The samples were fractionated with 1 N salt, and subjected to LC-MS/MS after sample preparation by the deproteination procedure. Figure 7 illustrates two representative traces of multiple reaction monitoring (MRM) chromatograms ([M + H^+] (m/z 1014.6) → b6 ion (m/z 730.6) for the administered [Ile ^13C, ^15N]OT; [M + H^+] (m/z 1021.2) → b6 ion (m/z 723.2) for the internal STD [Pro&Leu^13C, ^15N]OT)[47]. The left MRM chromatogram indicates the presence of full-length stably labelled [Ile ^13C, ^15N]OT in the blood owing to intestinal absorption after oral administration in suckling (PND3) pups (n = 4). The right MRM chromatogram of Fig. 7 corresponds to the internal STD [Pro&Leu^13C, ^15N]OT spiked into the plasma.\nStandard (STD) samples of [Ile^13C, ^15N]OT (100 ng/mL) and [Pro&Leu^13C, ^15N]OT (100 ng/mL) were prepared by dilution of stock solutions with 0.1% TFA as necessary. […]\nAn AB Sciex 4000 QTRAP (CA, USA) was used. The prepared 25 μL sample was injected and separated by a ZORBAX 300SB-C8 column (2.1 × 150 mm, 5 μm; CA, USA) and then detected using the multiple reaction monitoring (MRM) mode of the MS/MS system. […]"}, "[3]": {"assay": "Plasma AVP after oral delivery of AVP in pups (EIA)", "type": "in vivo, mice", "details": "for AVP recovery: rough estimate", "procedure": "To study the specificity of RAGE-dependent transport of OT, we investigated the intestinal absorption of another nonapeptide, arginine vasopressin (AVP[46]) by oral delivery and in the isolated intestines. Transport during the suckling period of development (PND3 and PND5) was confirmed by comparing plasma AVP levels at 10 min after oral delivery of 10 μL of synthetic AVP solution (100 μM; 1 μg/pup) or the same volume of PBS to pups after fasting for 30 min. Plasma AVP concentrations were markedly higher at both PND3 and PND5 in pups administered AVP than in those administered oral saline (Fig. 6a). Two-way ANOVA was used to analyse the interaction between Treatment (PBS/AVP) × Age, F 1,18 = 3.14, P = 0.0933; the Treatment (PBS/AVP) effect, F 1,18 = 5.21, P < 0.05; and the Age effect, F 1,18 = 91.26, P < 0.0001. Bonferroni’s post hoc tests were used to determine differences in AVP levels between PND3 and PND5, *P < 0.05. It is worth noting that the pup size denominator problem was also present in the above experiment. However, if we roughly estimate AVP recovery, it is approximately 4% at PND3 (22 ng was recovered from the effective dose of 555 ng (1 μg/1.8 g pup)) and also 4% at PND5 (16 ng was recovered from the effective dose of 400 ng (1 μg/2.5 g pup)).\nApproximately 30 μL of blood was collected from the facial vein of neonates after quick cold anesthesia on ice (Fig. 1a; ref. [67], [68]). The similar blood volume was obtained from the heart after opening of the chest of pups (Figs 1b–d, 3a,b, 6a and 7), from the carotid artery in the pup neck (Fig. 2a) and the tail vein of adults each time (Fig. 6) under ketamine anaesthesia ([…] intraperitoneally).\nOT or AVP immunoreactivity levels were quantified by using OT and AVP enzyme immunoassay (EIA) kits (Enzo Life Sciences, NY, USA), respectively. We performed assays in tissue preparations without pre-treatment[66], [70] to compare different tissue samples, though the fractioned sample was recommended, [72]. Blood samples collected as mentioned above were stored at −80 C. The blood samples were thawed and five μL of them were diluted 1:20 in assay buffer on ice and assayed."}}, "note": "Read-outs that look alike come from different tables or passages of the source.", "data": [{"molecule": "CC[C@H](C)[C@@H]1NC(=O)[C@H](Cc2ccc(O)cc2)NC(=O)[C@@H](N)CSSC[C@@H](C(=O)N2CCC[C@H]2C(=O)N[C@@H](CC(C)C)C(=O)NCC(N)=O)NC(=O)[C@H](CC(N)=O)NC(=O)[C@H](CCC(N)=O)NC1=O", "values": [{"measurement": "OT detected in plasma after oral delivery", "value": 50, "unit": "ng/mL"}]}, {"molecule": "1-deamino-8-arginine vasopressin", "values": [{"measurement": "Bioavailability", "setting": "[1]; intranasal", "value": 3.4, "unit": "%"}, {"measurement": "Bioavailability", "setting": "[1]; intrarectal", "value": 0, "unit": "%"}, {"measurement": "Bioavailability", "setting": "[1]; oral", "value": 0.1, "unit": "%"}, {"measurement": "Bioavailability", "setting": "[1]; sublingual", "value": 0, "unit": "%"}]}, {"molecule": "CC[C@H](C)[C@@H]1NC(=O)[C@H](Cc2ccc(O)cc2)NC(=O)[C@@H](N)CSSC[C@@H](C(=O)N2CCC[C@H]2C(=O)N[C@@H](CC(C)C)C(=O)NCC(N)=O)NC(=O)[C@H](CC(N)=O)NC(=O)[C@H](CCC(N)=O)NC1=O", "note": "[[Ile ^13C, ^15N]OT, isoleucine [Ile ^13C, ^15N] oxytocin]", "values": [{"measurement": "level at 10 min", "setting": "[2]; mouse, in vivo, 1000 ng, wild-type PND3 pups 10 min after oral 100 µM × 10 μL, LC-MS/MS, corrected for dilution x10, n = 4, read-out: Estimated mean concentration in the blood", "value": "346 ± 96", "unit": "ng/mL"}, {"measurement": "Concentration calculated from ratio of peak areas (10-fold diluted sample)", "setting": "[2]; wild-type PND3 pup plasma 10 min after oral 100 µM × 10 μL, LC-MS/MS MRM, sample of Fig. 7, before correction for dilution", "value": 27.9, "unit": "ng/mL"}]}, {"molecule": "arginine vasopressin [AVP]", "values": [{"measurement": "AVP recovered", "setting": "[3]; wild-type pups PND3, 10 min after oral AVP 1 μg/pup, effective dose 555 ng", "value": 22, "unit": "ng"}, {"measurement": "AVP recovery", "setting": "[3]; wild-type pups PND3, 10 min after oral AVP 1 μg/pup, effective dose 555 ng (1 μg/1.8 g pup)", "value": "approximately 4%"}, {"measurement": "AVP recovered", "setting": "[3]; wild-type pups PND5, 10 min after oral AVP 1 μg/pup, effective dose 400 ng", "value": 16, "unit": "ng"}, {"measurement": "AVP recovery", "setting": "[3]; wild-type pups PND5, 10 min after oral AVP 1 μg/pup, effective dose 400 ng (1 μg/2.5 g pup)", "value": "approximately 4%"}]}]}
